Results taken from paper PMC5218480 (PLoS ONE, 2017).

Test system: MV-4-11 cells
Test: Gene expression microarray analysis (Affymetrix PrimeView) and GSEA
Assay type: cell-based, human
Parameters: RFU PODN (11730768_x_at) / Fold change /veh PODN (11730768_x_at) / RFU LINC00158 (11744669_a_at) / Fold change /veh LINC00158 (11744669_a_at) / RFU DUSP10 (11751237_a_at) / Fold change /veh DUSP10 (11751237_a_at) / RFU ID3 (11757404_x_at) / Fold change /veh ID3 (11757404_x_at) / RFU PLEKHG5 (11737974_s_at) / Fold change /veh PLEKHG5 (11737974_s_at) / RFU LRRC4B (11730491_at) / Fold change /veh LRRC4B (11730491_at) / RFU GIMAP4 (11747438_a_at) / Fold change /veh GIMAP4 (11747438_a_at) / RFU KRT8 (11758183_x_at) / Fold change /veh KRT8 (11758183_x_at) / RFU CNN1 (11734310_a_at) / Fold change /veh CNN1 (11734310_a_at) / RFU VPS37D (11726825_at) / Fold change /veh VPS37D (11726825_at) / RFU C10orf10 (11716522_x_at) / Fold change /veh C10orf10 (11716522_x_at) / RFU KIR2DL2 /// KIR2DL4 /// KIR2DL5A /// KIR2DL5B /// KIR2DS1 /// KIR2DS2 /// KIR2DS3 /// KIR2DS4 /// KIR3DL3 /// KIR3DL3 /// KIR3DS1 (11738374_at) / Fold change /veh KIR2DL2 /// KIR2DL4 /// KIR2DL5A /// KIR2DL5B /// KIR2DS1 /// KIR2DS2 /// KIR2DS3 /// KIR2DS4 /// KIR3DL3 /// KIR3DL3 /// KIR3DS1 (11738374_at) / RFU C1QL1 (11718748_at) / Fold change /veh C1QL1 (11718748_at) / RFU TMPRSS4 (11747572_a_at) / Fold change /veh TMPRSS4 (11747572_a_at) / RFU HAMP (11756126_x_at) / Fold change /veh HAMP (11756126_x_at) / RFU RNFT2 (11725882_a_at) / Fold change /veh RNFT2 (11725882_a_at) / RFU NR4A2 (11747474_a_at) / Fold change /veh NR4A2 (11747474_a_at) / RFU ABCC12 (11746883_a_at) / Fold change /veh ABCC12 (11746883_a_at) / RFU TMEM136 (11760407_x_at) / Fold change /veh TMEM136 (11760407_x_at) / RFU CLDN22 /// WWC2 (11732394_at) / Fold change /veh CLDN22 /// WWC2 (11732394_at) / RFU HLA-DPB1 (11760878_x_at) / Fold change /veh HLA-DPB1 (11760878_x_at) / RFU SPINT1 (11716480_a_at) / Fold change /veh SPINT1 (11716480_a_at) / RFU GAP43 (11754022_s_at) / Fold change /veh GAP43 (11754022_s_at) / RFU A4GNT (11735810_at) / Fold change /veh A4GNT (11735810_at) / RFU PRB3 (11715151_x_at) / Fold change /veh PRB3 (11715151_x_at) / RFU TUBB4B (11761932_at) / Fold change /veh TUBB4B (11761932_at) / RFU CAPN14 (11732068_a_at) / Fold change /veh CAPN14 (11732068_a_at) / RFU TMCC2 (11721928_a_at) / Fold change /veh TMCC2 (11721928_a_at) / RFU IRGQ (11745062_a_at) / Fold change /veh IRGQ (11745062_a_at) / RFU FAM174B (11720279_a_at) / Fold change /veh FAM174B (11720279_a_at) / RFU TMPRSS4 (11748680_a_at) / Fold change /veh TMPRSS4 (11748680_a_at) / RFU FAM212B (11763350_a_at) / Fold change /veh FAM212B (11763350_a_at) / RFU PLEKHG5 (11743358_a_at) / Fold change /veh PLEKHG5 (11743358_a_at) / RFU ZSCAN30 (11745921_a_at) / Fold change /veh ZSCAN30 (11745921_a_at) / RFU CMKLR1 (11741424_a_at) / Fold change /veh CMKLR1 (11741424_a_at) / RFU LOC101060620 /// MAPK8IP1 (11723275_at) / Fold change /veh LOC101060620 /// MAPK8IP1 (11723275_at) / RFU SPTSSB (11747773_x_at) / Fold change /veh SPTSSB (11747773_x_at) / RFU PRSS12 (11739890_at) / Fold change /veh PRSS12 (11739890_at) / RFU BIN1 (11741810_x_at) / Fold change /veh BIN1 (11741810_x_at) / RFU WNT11 (11732464_a_at) / Fold change /veh WNT11 (11732464_a_at) / RFU C10orf10 (11716521_a_at) / Fold change /veh C10orf10 (11716521_a_at) / RFU C5orf56 (11738089_at) / Fold change /veh C5orf56 (11738089_at) / RFU CYB561 (11721691_x_at) / Fold change /veh CYB561 (11721691_x_at) / RFU ANKRD19P (11752326_a_at) / Fold change /veh ANKRD19P (11752326_a_at) / RFU OR2T12 /// OR2T33 /// OR2T8 (11738714_s_at) / Fold change /veh OR2T12 /// OR2T33 /// OR2T8 (11738714_s_at) / RFU VCAN (11748164_a_at) / Fold change /veh VCAN (11748164_a_at) / RFU JSRP1 (11732532_at) / Fold change /veh JSRP1 (11732532_at) / RFU KRTAP10-11 (11738290_x_at) / Fold change /veh KRTAP10-11 (11738290_x_at) / RFU MYO3A (11730013_a_at) / Fold change /veh MYO3A (11730013_a_at) / RFU EBF3 (11725865_a_at) / Fold change /veh EBF3 (11725865_a_at) / RFU CAMK2N1 (11719241_x_at) / Fold change /veh CAMK2N1 (11719241_x_at) / RFU C5orf56 (11738088_a_at) / Fold change /veh C5orf56 (11738088_a_at) / RFU OLFML3 (11715873_a_at) / Fold change /veh OLFML3 (11715873_a_at) / RFU LOC100653217 /// NTM (11731650_a_at) / Fold change /veh LOC100653217 /// NTM (11731650_a_at) / RFU MAPK11 (11762145_a_at) / Fold change /veh MAPK11 (11762145_a_at) / RFU FIZ1 (11724087_x_at) / Fold change /veh FIZ1 (11724087_x_at) / RFU OASL (11726364_x_at) / Fold change /veh OASL (11726364_x_at) / RFU SOX15 (11748057_x_at) / Fold change /veh SOX15 (11748057_x_at) / RFU CD79A (11719716_a_at) / Fold change /veh CD79A (11719716_a_at) / RFU HIST1H1D (11736915_at) / Fold change /veh HIST1H1D (11736915_at) / RFU CASKIN2 (11723855_a_at) / Fold change /veh CASKIN2 (11723855_a_at) / RFU LOC730098 (11760151_x_at) / Fold change /veh LOC730098 (11760151_x_at) / RFU OR4N2 (11742367_at) / Fold change /veh OR4N2 (11742367_at) / RFU PRRT2 (11749266_a_at) / Fold change /veh PRRT2 (11749266_a_at) / RFU SNX32 (11753110_a_at) / Fold change /veh SNX32 (11753110_a_at) / RFU CDHR5 (11726645_a_at) / Fold change /veh CDHR5 (11726645_a_at) / RFU RCAN1 (11760418_a_at) / Fold change /veh RCAN1 (11760418_a_at) / RFU FAM167A (11723789_a_at) / Fold change /veh FAM167A (11723789_a_at) / RFU FAM26E (11764081_at) / Fold change /veh FAM26E (11764081_at) / RFU ISYNA1 (11749810_s_at) / Fold change /veh ISYNA1 (11749810_s_at) / RFU ACY1 (11761880_at) / Fold change /veh ACY1 (11761880_at) / RFU 11764098_at / Fold change /veh 11764098_at / RFU SAMD14 (11745864_x_at) / Fold change /veh SAMD14 (11745864_x_at) / RFU NPB (11741838_a_at) / Fold change /veh NPB (11741838_a_at) / RFU TMPRSS6 (11731388_a_at) / Fold change /veh TMPRSS6 (11731388_a_at) / RFU KRTAP10-2 (11738614_at) / Fold change /veh KRTAP10-2 (11738614_at) / RFU ARHGAP8 /// PRR5-ARHGAP8 (11727945_x_at) / Fold change /veh ARHGAP8 /// PRR5-ARHGAP8 (11727945_x_at) / RFU KRTAP5-7 /// NADSYN1 (11734609_at) / Fold change /veh KRTAP5-7 /// NADSYN1 (11734609_at) / RFU RASL12 (11751679_a_at) / Fold change /veh RASL12 (11751679_a_at) / RFU CDKN2B (11736163_a_at) / Fold change /veh CDKN2B (11736163_a_at) / RFU PRF1 (11729649_at) / Fold change /veh PRF1 (11729649_at) / RFU, ZNF638 /// ZNF638-IT1 / Fold change vs veh, ZNF638 /// ZNF638-IT1 / RFU, PANK3 / Fold change vs veh, PANK3 / RFU, SH3YL1 / Fold change vs veh, SH3YL1 / RFU, ZEB2 / Fold change vs veh, ZEB2 / RFU, NRIP1 / Fold change vs veh, NRIP1 / RFU, PTTG1IP / Fold change vs veh, PTTG1IP / RFU, CAPN2 / Fold change vs veh, CAPN2 / RFU, MED14 / Fold change vs veh, MED14 / RFU, SNORA58 / Fold change vs veh, SNORA58 / RFU, C1orf63 / Fold change vs veh, C1orf63 / RFU, LRRFIP1 / Fold change vs veh, LRRFIP1 / RFU, NDUFAF7 / Fold change vs veh, NDUFAF7 / RFU, SLC12A2 / Fold change vs veh, SLC12A2 / RFU, IBTK / Fold change vs veh, IBTK / RFU, ESF1 / Fold change vs veh, ESF1 / Fold change vs veh, TMEM50B / RFU, TAOK1 / Fold change vs veh, TAOK1 / RFU, ACBD3 / Fold change vs veh, ACBD3 / RFU, TMA16 / Fold change vs veh, TMA16 / RFU, RWDD3 / Fold change vs veh, RWDD3 / RFU, BCAT1 / Fold change vs veh, BCAT1 / RFU, EDEM3 / Fold change vs veh, EDEM3 / RFU, TMEM33 / Fold change vs veh, TMEM33 / RFU, WDR75 / Fold change vs veh, WDR75 / RFU, AHCTF1 / Fold change vs veh, AHCTF1 / RFU, TFRC / Fold change vs veh, TFRC / RFU, ZDHHC17 / Fold change vs veh, ZDHHC17 / RFU, NOM1 / Fold change vs veh, NOM1 / RFU, ARL8B / Fold change vs veh, ARL8B / RFU, ZBTB11 / Fold change vs veh, ZBTB11 / RFU, TAMM41 / Fold change vs veh, TAMM41 / RFU, KIAA1704 /// LOC100996395 / Fold change vs veh, KIAA1704 /// LOC100996395 / RFU, ING1 / Fold change vs veh, ING1 / RFU, TRMT61B / Fold change vs veh, TRMT61B / RFU, FUBP3 / Fold change vs veh, FUBP3 / RFU, TP53 / Fold change vs veh, TP53 / RFU, TNKS2 / Fold change vs veh, TNKS2 / RFU, ZFP14 / Fold change vs veh, ZFP14 / RFU, ACTR2 / Fold change vs veh, ACTR2 / RFU, PPP3R1 / Fold change vs veh, PPP3R1 / RFU, PIK3R1 / Fold change vs veh, PIK3R1 / RFU, HNRNPA1 / Fold change vs veh, HNRNPA1 / RFU, RNF170 / Fold change vs veh, RNF170 / RFU, ZNF28 / Fold change vs veh, ZNF28 / RFU, RNGTT / Fold change vs veh, RNGTT / RFU, OGT / Fold change vs veh, OGT / RFU, BRD1 / Fold change vs veh, BRD1 / RFU, MARS / Fold change vs veh, MARS / RFU, ZNF655 / Fold change vs veh, ZNF655 / RFU, FAHD1 / Fold change vs veh, FAHD1 / RFU, BDP1 / Fold change vs veh, BDP1 / RFU, LRRCC1 / Fold change vs veh, LRRCC1 / RFU, ARID1A / Fold change vs veh, ARID1A / RFU, ZNF146 / Fold change vs veh, ZNF146 / RFU, ZNF330 / Fold change vs veh, ZNF330 / RFU, GPN3 / Fold change vs veh, GPN3 / RFU, C9orf123 / Fold change vs veh, C9orf123 / RFU, N4BP2L2 / Fold change vs veh, N4BP2L2 / RFU, ARFIP1 / Fold change vs veh, ARFIP1 / RFU, FAM179B / Fold change vs veh, FAM179B / RFU, BCL10 / Fold change vs veh, BCL10 / RFU, UHRF1BP1L / Fold change vs veh, UHRF1BP1L / RFU, BET1 / Fold change vs veh, BET1 / RFU, CNOT2 / Fold change vs veh, CNOT2 / RFU, ZNF268 / Fold change vs veh, ZNF268 / Fold change vs veh, ZNF507 / RFU, DGCR2 / Fold change vs veh, DGCR2 / RFU, WDSUB1 / Fold change vs veh, WDSUB1 / Fold change vs veh, HSP90B1 /// MIR3652 / RFU, ADSS / Fold change vs veh, ADSS / RFU, GK / Fold change vs veh, GK / RFU, ZNF148 / Fold change vs veh, ZNF148 / RFU, TAF9 / Fold change vs veh, TAF9 / RFU, SLC1A5 / Fold change vs veh, SLC1A5 / RFU, SLMO2 / Fold change vs veh, SLMO2 / RFU, ABCC4 / Fold change vs veh, ABCC4 / RFU, LOC101060439 /// RAP1B / Fold change vs veh, LOC101060439 /// RAP1B / RFU, RFX7 / Fold change vs veh, RFX7 / RFU, GTPBP10 / Fold change vs veh, GTPBP10 / RFU, CNEP1R1 / Fold change vs veh, CNEP1R1 / RFU, BIVM-ERCC5 /// ERCC5 / Fold change vs veh, BIVM-ERCC5 /// ERCC5 / RFU, ILF3 / Fold change vs veh, ILF3 / RFU 11762660_at / Fold change /veh 11762660_at / RFU VCAN (11757783_s_at) / Fold change /veh VCAN (11757783_s_at) / RFU DDX43 (11728927_at) / Fold change /veh DDX43 (11728927_at) / RFU KRT8 (11758188_x_at) / Fold change /veh KRT8 (11758188_x_at) / RFU NKD1 (11759106_at) / Fold change /veh NKD1 (11759106_at) / RFU SRD5A1 (11742802_a_at) / Fold change /veh SRD5A1 (11742802_a_at) / RFU TPSAB1 /// TPSB2 (11721975_s_at) / Fold change /veh TPSAB1 /// TPSB2 (11721975_s_at) / RFU GSTM3 (11746129_a_at) / Fold change /veh GSTM3 (11746129_a_at) / RFU IL23R (11737362_x_at) / Fold change /veh IL23R (11737362_x_at) / RFU TMEM51 (11727254_a_at) / Fold change /veh TMEM51 (11727254_a_at) / RFU PIWIL2 (11732686_x_at) / Fold change /veh PIWIL2 (11732686_x_at) / RFU ORM1 (11744905_x_at) / Fold change /veh ORM1 (11744905_x_at) / RFU CCDC152 (11743942_at) / Fold change /veh CCDC152 (11743942_at) / RFU ECM1 (11717891_a_at) / Fold change /veh ECM1 (11717891_a_at) / RFU IL23R (11748794_a_at) / Fold change /veh IL23R (11748794_a_at) / RFU TNFAIP8L3 (11732012_x_at) / Fold change /veh TNFAIP8L3 (11732012_x_at) / RFU MBOAT4 (11741988_at) / Fold change /veh MBOAT4 (11741988_at) / RFU 11764193_at / Fold change /veh 11764193_at / RFU TMEM53 (11763286_at) / Fold change /veh TMEM53 (11763286_at) / RFU MAGEB2 (11727129_at) / Fold change /veh MAGEB2 (11727129_at) / RFU TMEM200A (11744735_a_at) / Fold change /veh TMEM200A (11744735_a_at) / RFU CCDC152 (11751479_a_at) / Fold change /veh CCDC152 (11751479_a_at) / RFU FAM211A (11726209_a_at) / Fold change /veh FAM211A (11726209_a_at) / RFU RGS16 (11746705_a_at) / Fold change /veh RGS16 (11746705_a_at) / RFU VCAN (11755009_s_at) / Fold change /veh VCAN (11755009_s_at) / RFU RHOB (11743442_s_at) / Fold change /veh RHOB (11743442_s_at) / RFU RGS16 (11720943_a_at) / Fold change /veh RGS16 (11720943_a_at) / RFU RGS16 (11720944_at) / Fold change /veh RGS16 (11720944_at) / RFU, VPS4B / Fold change vs veh, VPS4B / RFU, CREB1 / Fold change vs veh, CREB1 / RFU, DNAJC13 / Fold change vs veh, DNAJC13 / RFU, GNAQ / Fold change vs veh, GNAQ / RFU, CDK5R1 / Fold change vs veh, CDK5R1 / RFU, ZRANB3 / Fold change vs veh, ZRANB3 / RFU, CUL4A / Fold change vs veh, CUL4A / RFU, CCNY / Fold change vs veh, CCNY / RFU, UFL1 / Fold change vs veh, UFL1 / RFU, COG3 / Fold change vs veh, COG3 / RFU, DIAPH2 / Fold change vs veh, DIAPH2 / RFU, SKA2 / Fold change vs veh, SKA2 / RFU, AFF3 / Fold change vs veh, AFF3 / RFU, LMF1 / Fold change vs veh, LMF1 / RFU, IPO11 / Fold change vs veh, IPO11 / RFU, DFFB / Fold change vs veh, DFFB / RFU, FOXP1 / Fold change vs veh, FOXP1 / RFU, CARD8 / Fold change vs veh, CARD8 / RFU, STRN3 / Fold change vs veh, STRN3 / RFU, ADK / Fold change vs veh, ADK / RFU, RASSF2 / Fold change vs veh, RASSF2 / RFU, WIPF1 / Fold change vs veh, WIPF1 / RFU, LARP1B / Fold change vs veh, LARP1B / RFU, RASA1 / Fold change vs veh, RASA1 / RFU, RB1 / Fold change vs veh, RB1 / RFU, PPFIA1 / Fold change vs veh, PPFIA1 / RFU, MAT2A / Fold change vs veh, MAT2A / RFU, CCT5 / Fold change vs veh, CCT5 / RFU, WDR92 / Fold change vs veh, WDR92 / RFU, CUX1 / Fold change vs veh, CUX1 / RFU, TTC7A / Fold change vs veh, TTC7A / RFU, TMEM135 / Fold change vs veh, TMEM135 / RFU, DEPTOR / Fold change vs veh, DEPTOR / RFU, CPM / Fold change vs veh, CPM / RFU, DNAJB6 / Fold change vs veh, DNAJB6 / RFU, CACNA2D3 / Fold change vs veh, CACNA2D3 / RFU, DTX4 / Fold change vs veh, DTX4 / RFU, TFCP2 / Fold change vs veh, TFCP2 / RFU, GMCL1 /// GMCL1P1 / Fold change vs veh, GMCL1 /// GMCL1P1 / RFU, AEBP2 / Fold change vs veh, AEBP2 / RFU, SNHG1 /// SNORD22 /// SNORD25 /// SNORD26 /// SNORD27 /// SNORD28 /// SNORD29 /// SNORD31 / Fold change vs veh, SNHG1 /// SNORD22 /// SNORD25 /// SNORD26 /// SNORD27 /// SNORD28 /// SNORD29 /// SNORD31 / Fold change (Aza/veh), C12orf56 (ProbeSet 11735607_a_at) / Fold change (ACY-1035/veh), C12orf56 (ProbeSet 11735607_a_at) / Fold change (Aza/veh), FGFR1OP (ProbeSet 11751329_s_at) / Fold change (ACY-1035/veh), FGFR1OP (ProbeSet 11751329_s_at) / Fold change (Aza/veh), VPS36 (ProbeSet 11739960_a_at) / Fold change (ACY-1035/veh), VPS36 (ProbeSet 11739960_a_at) / RFU SYPL1 (11715823_x_at) / Fold change /veh SYPL1 (11715823_x_at) / RFU IGFBP7 (11715501_s_at) / Fold change /veh IGFBP7 (11715501_s_at) / RFU REEP3 (11722064_at) / Fold change /veh REEP3 (11722064_at) / RFU IGLL1 (11728026_x_at) / Fold change /veh IGLL1 (11728026_x_at): dose or concentration left out as unconfirmed
Details: MV-4-11 cells, 48 hours

## Nc1ncn([C@@H]2O[C@H](CO)[C@@H](O)[C@H]2O)c(=O)n1 [azacitidine]
  RFU ORM1 (11744905_x_at): 10.48 RFU
